The source of these data is patent publication US11548918B2, “Sodium channel protein Nav1.4-targeting polypeptide and use thereof” (priority 2021, dated 2023).

Where no end group is shown, it is not given here.

The assay deals with skin wrinkles. Description: Clinical trial of wrinkle reduction, wrinkle volume measured with PRIMOS CR. Format: in vivo, human. The note with it: lotion with 0.0003 wt % NaV-B, 0.1 g at corners of eyes, female volunteers. How it is done:
The capacity of NaV-B in reducing skin wrinkles was evaluated by clinical trials, wherein a total of 30 female volunteers ranging from 35 to 55 years old were participating in the trials. In the trials, 0.1 g of lotion was evenly applied to the corners of the volunteers' eyes. The wrinkle volume of each volunteer was measured with a wrinkle analyzer PRIMOS CR at various moments: before application, 15 minutes after application, 1 hour after application, 2 hours after application, and 4 hours after application.
The lotion was prepared by adding NaV-B, glycerin, 1,3-butanediol, sodium hyaluronate, and methylparaben into deionized water according to the following proportions, and stirring until all the ingredients were dissolved.
Results: The reduced wrinkle volumes of each volunteer were obtained by subtracting the volume measured before application from the volumes measured 15 minutes after application, 1 hour after application, 2 hours after application, and 4 hours after application. The percentages of reduced wrinkle volume of each volunteer were obtained through dividing the reduced wrinkle volumes by the volume measured before application.

On to “Synthetic Nav1.4-targeting polypeptide, amino acid sequence GHCCGDEYRKWCGKRVCRNKARCC (disulfide (positions not given here); not fully specified (bridges)) [NaV-B]”, for which the “percentage of reduced wrinkle volume (average of all volunteers)” value (15 minutes after application) is listed as “more than 9%” and the “percentage of reduced wrinkle volume (average of all volunteers)” value (4 hours after application) is on record as “more than 15%”.
